Results from patent publication US20010056068A1, “METHOD OF TREATMENT AND PREVENTION OF NITRIC OXIDE DEFICIENCY-RELATED DISORDERS WITH CITRULLINE AND CITRULLINE DERIVATIVES” (priority 1998, published 2001).

Key:
[1] = test system: normal and L-NAME-treated female rats; experiment: Heart rate by telemetry after oral citrulline in normal and L-NAME-treated female rats; type: in vivo, rat
Procedure: (§1) FIG. 3: The effect of a single administration of citrulline on the heart rate in normal and L-NAME-treated female rats. Intact female rats chronically instrumented with telemetric transducers allowing continuous monitoring of heart rate were subcutaneously implanted with osmotic mini-pumps releasing 50 mg/day L-NAME or 0.9% saline (controls). 24 hours after the pump insertion, the animals received 70 mg/rat citrulline orally per gavage. The heart rate was monitored for an additional 24 hours following citrulline treatment. N=5/group
At this time there was also a pronounced increase in heart rate in the L-NAME-treated rats (to 400-450 times/minute). Following a single oral citrulline (70 mg) administration, there was a rapid and very pronounced (p<0.05) decrease in heart rate to approximately 100 times/minute reaching a plateau already 1 hour after treatment. […] The effects of citrulline sustained for 24 hours in both treatment and control groups of citrulline treatment.

[2] = test system: normal and L-NAME-treated female rats; experiment: Systolic blood pressure by telemetry after oral citrulline in normal and L-NAME-treated female rats; type: in vivo, rat; conditions: for decrease in blood pressure: 70 mg/rat at 24 h and 140 mg/rat at 48 h after pump insertion
Procedure: as §1, with “FIG. 1:” for “FIG. 3:”, “the systolic blood pressure” for “the heart rate”, “of blood pressure” for “of heart rate”, “were subcutaneusly” for “were subcutaneously”, “The systolic blood pressure” for “The heart rate”, “treatment. N=5/group.” for “treatment. N=5/group”
(§2) FIG. 2: The effect of multiple administration of citrulline on the systolic blood pressure in normal and L-NAME-treated female rats. Intact female rats chronically instrumented with telemetric transducers allowing continuous monitoring of blood pressure were subcutaneously implanted with osmotic mini-pumps releasing 50 mg/day L-NAME or vehicle (controls). 24 and 48 hours after the pump insertion, the animals received 70 and 140 mg/rat citrulline orally per gavage. The systolic blood pressure was monitored for an additional 24 hours following the second citrulline treatment. N=5/group
However, the systolic BP started to raise 4 hours after citrulline treatment.
In the experiment which results are presented in FIG. 2, the animals were treated twice with citrulline, i.e. 24 hours (70 mg/rat) and 48 after the start of L-NAME infusion. Similarly to FIG. 1, the first administration of citrulline was performed when the animals became hypertensive following L-NAME infusion.

[3] = test system: normal and L-NAME-treated female rats; experiment: Observation of side-effects of citrulline administration in the rat experiments; type: in vivo; conditions: oral 70 or 140 mg/rat, any experiment
Procedure: as §1, with “FIG. 1:” for “FIG. 3:”, “the systolic blood pressure” for “the heart rate”, “of blood pressure” for “of heart rate”, “were subcutaneusly” for “were subcutaneously”, “The systolic blood pressure” for “The heart rate”, “treatment. N=5/group.” for “treatment. N=5/group”
as §2
FIG. 3: The effect of a single administration of citrulline on the heart rate in normal and L-NAME-treated female rats. […] The heart rate was monitored for an additional 24 hours following citrulline treatment. […]

[4] = control female rats infused with vehicle, single oral 70 mg citrulline
[5] = female rats, 50 mg/day L-NAME by subcutaneous osmotic mini-pump, before citrulline

Compound	time to plateau of heart rate decrease after treatment ([1]; L-NAME-treated female rats, single oral 70 mg citrulline) [h]	heart rate after treatment ([1]; L-NAME-treated female rats, single oral 70 mg citrulline 24 h after start of L-NAME infusion, p<0.05)	duration of the effects on heart rate ([1]; both treatment (L-NAME) and control groups, single oral 70 mg citrulline) [h]	change in heart rate [1, 4]	effect of second dose of 140 mg on blood pressure compared with first dose of 70 mg ([2]; L-NAME- and vehicle-treated female rats, multiple oral administration)	change in systolic blood pressure ([2]; L-NAME-treated (50 mg/day, osmotic mini-pump) female rats, single oral 70 mg citrulline 24 h after start of L-NAME infusion, N=5/group)	decrease in blood pressure ([2]; L-NAME-treated female rats, multiple oral administration)	change in blood pressure [2, 4]	time after treatment at which systolic BP started to rise [2, 4] [h]	hypertension and increase in heart rate induced by NOS inhibition with L-NAME ([2]; female rats, citrulline administered orally, overall conclusion)	decrease in blood pressure ([2]; vehicle-treated female rats, multiple oral administration)	side-effects of citrulline administration [3]	heart rate 24 hours after start of L-NAME infusion [1, 5]	blood pressure effect 24 hours after start of L-NAME infusion [2, 5]
NC(=O)NCCC[C@H](N)C(=O)O [citrulline]	1	approximately 100 times/minute	24	reduced heart rate	slightly more effective	rapid and significant (p<0.05) decrease in systolic blood pressure	30-40%	reduced blood pressure	4	partially attenuated	30-40%	No side-effects		
COC(=O)[C@@H](N)CCCNC(=N)N[N+](=O)[O-] [L-NAME, N^G-nitro-L-arginine methyl ester, reference compound]													400-450 times/minute	substantial hypertension
